Results: patent US20090275557A1, “Novel Composition for Treatment of Diseases Related to Activated Lymphocytes” (Immune Control, Inc., priority 2008, published 2009)

Columns and labels:
[1] = system: bovine type 2 collagen immunized female Lewis rats; experiment: Collagen-induced arthritis assay, oral gavage treatment, ankle diameter; type: in vivo, rat
Experimental: Female Lewis rats (CR) weighing between 125-200 g were immunized with bovine type 2 collagen, 2 mg/ml in a 1:1 solution of 0.01 N acetic acid and Freund's incomplete adjuvant (“FIA”). A 0.1 ml portion of the collagen solution was injected id (intradermally) at three sites on the rat. Rats were immunized with the collagen solution on days 1 and 6 of the study. […] On day 9 (study day “0”), baseline ankle diameters were measured. On days 10-15 (study days 1-6), the rats were then treated, via oral gavage, with either 1, 5, or 25 mg/kg of one of ICI-1259 or ICI-1260, prepared as described below. Ankle diameter measurements were measured on each of days 10-16.
Separate solutions of ICI-1259 and ICI-1260 were prepared in Dulbecco's PBS (pH 7) (“vehicle”) at 1 mg/ml. Control animals, who had not been immunized, were given vehicle without any compound. In a further control, immunized rats were given vehicle without ICI-1259 or ICI-1260. In still another control, immunized rats were treated with Enbrel™ at 10 mg/kg.

[2] = biological target: T1, 5-HT2B (Homo sapiens, UniProt P41595); experiment: 5-HT receptor binding, displacement of tritiated ligands; conditions: at 10 μM
T1 construct: from tissue
Experimental: (§1) 5-HT receptor binding was measured using membrane preparations of brain regions known to be enriched with given 5-HT receptor subtype(s). The assay subsequently measured the displacement of tritiated ligands known to bind to a given 5-HT subtype.
(§2) A receptor binding assay was performed for ICI-1259 and ICI-1260 showing that at 10 μM, these compounds bind receptors 5-HT1A(h), 5-HT1B, 5-HT1D(h), 5-HT2A, 5-HT2A(h), 5-HT2B, 5-HT2C, 5-HT3,5-HT3(h), 5-HT4, 5-HT5A(h), 5-HT6, and 5-HT7.

[3] = biological target: T2, 5-HT3(h) (Homo sapiens, UniProt P46098); experiment: as above; conditions: at 10 μM
T2 construct: from tissue
T2 sequence (P46098 24-478): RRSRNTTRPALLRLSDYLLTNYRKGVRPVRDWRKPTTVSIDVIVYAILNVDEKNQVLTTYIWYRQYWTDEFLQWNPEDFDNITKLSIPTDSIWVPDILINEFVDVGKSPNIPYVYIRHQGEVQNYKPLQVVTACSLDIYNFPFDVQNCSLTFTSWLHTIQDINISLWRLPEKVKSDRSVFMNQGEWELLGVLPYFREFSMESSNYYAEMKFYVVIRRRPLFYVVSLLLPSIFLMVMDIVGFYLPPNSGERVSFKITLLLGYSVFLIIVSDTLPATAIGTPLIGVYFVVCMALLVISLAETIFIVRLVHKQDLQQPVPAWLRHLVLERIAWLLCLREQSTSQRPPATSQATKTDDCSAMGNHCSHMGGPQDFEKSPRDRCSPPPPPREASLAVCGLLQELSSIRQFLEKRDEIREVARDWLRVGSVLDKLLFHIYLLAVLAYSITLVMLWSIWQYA
Experimental: as §1, §2

[4] = system: 5-HT2C; experiment: as above; conditions: at 10 μM
Experimental: as §1, §2

[5] = biological target: T3, 5-HT5A(h) (Homo sapiens, UniProt P47898); experiment: as above; conditions: at 10 μM
T3 construct: from tissue
Experimental: as §1, §2

T3 sequence (P47898 whole entry): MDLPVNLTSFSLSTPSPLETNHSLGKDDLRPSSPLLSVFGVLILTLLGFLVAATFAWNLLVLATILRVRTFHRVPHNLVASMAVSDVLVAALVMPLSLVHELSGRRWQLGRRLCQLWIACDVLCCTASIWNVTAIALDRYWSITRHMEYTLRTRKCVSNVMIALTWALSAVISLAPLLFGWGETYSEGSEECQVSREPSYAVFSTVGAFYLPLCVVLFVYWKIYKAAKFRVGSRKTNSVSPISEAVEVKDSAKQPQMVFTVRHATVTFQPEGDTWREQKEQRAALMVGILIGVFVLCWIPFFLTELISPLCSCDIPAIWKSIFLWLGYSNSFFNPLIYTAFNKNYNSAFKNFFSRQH
T1 sequence (P41595 whole entry, species assumed): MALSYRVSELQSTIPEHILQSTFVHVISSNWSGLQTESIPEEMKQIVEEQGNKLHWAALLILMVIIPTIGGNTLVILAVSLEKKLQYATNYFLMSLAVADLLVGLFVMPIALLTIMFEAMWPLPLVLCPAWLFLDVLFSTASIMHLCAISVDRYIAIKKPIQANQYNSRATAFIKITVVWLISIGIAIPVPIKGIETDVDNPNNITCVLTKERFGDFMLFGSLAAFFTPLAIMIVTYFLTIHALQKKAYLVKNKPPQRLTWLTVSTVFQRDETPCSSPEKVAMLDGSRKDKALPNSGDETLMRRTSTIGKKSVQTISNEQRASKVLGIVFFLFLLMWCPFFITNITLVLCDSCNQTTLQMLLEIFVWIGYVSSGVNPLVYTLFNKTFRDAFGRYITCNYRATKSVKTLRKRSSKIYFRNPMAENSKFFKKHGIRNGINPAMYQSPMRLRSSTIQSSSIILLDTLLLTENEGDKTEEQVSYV

Structure (SMILES): CNCC(=O)NCCCN1CCC(CCCN2c3ccccc3Sc3ccc(C(F)(F)F)cc32)CC1 [ICI-1259, 2-(methylamino)-N-(3-(4-(3-(2-(trifluoromethyl)-10H-phenothiazin-10-yl)propyl)piperidin-1-yl)propyl)acetamide]
- reduction in ankle swelling ([1]; oral 25 mg/kg, study days 5-7): statistically significant reduction in ankle swelling
- receptor binding [2]: bind
- receptor binding [3]: bind
- receptor binding [4]: bind
- receptor binding [5]: bind

Structure (SMILES): NCC(=O)NCCCN1CCC(CCCN2c3ccccc3Sc3ccc(C(F)(F)F)cc32)CC1 [ICI-1260, 2-amino-N-(3-(4-(3-(2-(trifluoromethyl)-10H-phenothiazin-10-yl)propyl)piperidin-1-yl)propyl)acetamide]
- reduction in ankle swelling ([1]; oral 5 mg/kg, larger standard errors at each dose): showed a reduction in ankle swelling
- reduction in ankle swelling ([1]; oral 25 mg/kg, larger standard errors at each dose): showed a reduction in ankle swelling
- receptor binding [2]: bind
- receptor binding [3]: bind
- receptor binding [4]: bind
- receptor binding [5]: bind
